The record followed here is patent US11925632B2, “Isoquinoline derivatives for use in treating GLUT1 deficiency syndrome” (GLIAPHARM SA, priority 2019, dated 2024).

Experiment [1] relates to astrocytes transfected with GLUT1 siRNA. Nature of the experiment: Lactate secretion, GLUT1 siRNA astrocytes (cellular model of GLUT1-DS). The class given is cell-based, mouse. The following applies: vs vehicle. Here is the method:
Secretion of L-lactate was measured in the extracellular medium of 96-well plated astrocytes after 90 min stimulation (at 37° C., in 5% CO2/95% air conditions) with Vehicle (DMSO), the compounds of the invention (100 nM to 100 μM) or positive control. […] Stimulation medium was composed of D5030 medium complemented with 5 mM D-glucose and 44 mM sodium bicarbonate, pH 7.2. To quantify lactate concentrations in the extracellular medium, 200 μl of a 0.2M Glycine-semicarbazide buffer (pH 10) containing 3 mM NAD and 14 U/ml LDH was added to each well of a 96-well plate containing 30 μl aliquots of extracellular medium. Samples were incubated at 37° C. for 1 h. Fluorescence intensity (340 nm excitation/450 nm emission), which represents the amount of NADH produced, was measured, and lactate concentration values were determined relative to a standard curve of L-lactate concentrations.
Scramble and GLUT1 siRNA sequences were as following:
Cells were grown in transfection medium for 3 days at 37° C. in a humidified atmosphere containing 5% CO2/95% air. After 3 days, transfection medium was replaced with DMEM D5030 supplemented with 44 mM NaHCO3 and 5 mM D-Glucose (1 ml per well).
Lactate secretion after treatment with Veh or compound of the invention (1) was measured in astrocytes transfected with scramble siRNA or GLUT1 siRNA (FIG. 4B).

The test system of a further experiment is astrocytes. Nature of the experiment: Extracellular medium acidification (SNARF5) assay in astrocytes. The experiment is classed as cell-based. The following applies: Mus musculus, Astrocyte, 1.5 h; astrocytes in vitro, 90 min stimulation, 10 nM to 30 μM. Here is the method:
Secretion of lactate was measured indirectly through the acidification of extracellular medium using extracellular pH sensor SNARE-5F-(AND-6)-CAR (SNARF5) as described below.
Secretion of lactate was measured indirectly through the acidification of extracellular medium using extracellular pH sensor […] (SNARF5). After washing cells twice with stimulation medium (DMEM (D5030, Sigma), 1 mM […], and 5 mM Glucose, pH 7.4) at 37° C., cells were stimulated with compounds at a final concentration ranging from 10 nM to 30 μM in 50 μl per well of stimulation medium supplemented with 10 μM of SNARF5 (Life Technologies Corporation). Each compound was tested in two different plates for duplicates. After 90 min stimulation, fluorescence was read at exc. (excitation) 480 nm/emm. (emission) 580 nm and at exc 480 nm/emm. 630 nm. The ratio of fluorescence between 630 nm and 580 emission values, which is proportional to extracellular pH, was calculated. In each plate, 8 wells were used for negative controls (DMSO 0.1%) and 8 wells were used for positive controls (CCCP 2 μM in DMSO).
Table 3 below lists compounds that are active on the extracellular medium acidification (SNARF5) assay in astrocytes in vitro, which indicates their ability to produce lactate. ‘+’ indicates activity of compounds with EC50>5 μM; ‘++’ indicates activity of compounds with EC50<5 μM.
Primary cultures of cerebrocortical astrocytes were obtained from 1 to 2-day-old OF1 mouse pups (Charles River). Briefly, cortices were isolated and minced in small pieces under a dissecting microscope. The cells were incubated for 30 min at 37° C. in a solution containing 20 U/ml papain, 1 mM L-cysteine and 10 kU/ml DNase I. After dissociation, papain activity was stopped by the addition of fetal calf serum (FCS). Single-cell suspension was then obtained by mechanical dissociation, which consisted in cells trituration in a DMEM D7777 medium supplemented with 44 mm NaHCO3, 10 ml/L antibiotic/antimycotic solution and 10% FCS. The cells were seeded at an average density of ˜10′000 cells/cm^2 on poly-D-lysine coated 96- or 12-well culture plates, depending on their use, and grown in DMEM D7777 medium supplemented with 44 mm NaHCO3, 10 ml/L antibiotic/antimycotic solution and 10% FCS at 37° C. in a humidified atmosphere containing 5% CO2/95% air. Culture medium was renewed twice a week. Cells were stimulated and harvested between DIV14 and DIV17, when confluence and cell growth were optimal.

Entries after “also recorded” stand apart in the source; their conditions may differ.

With `COc1cc2ccnc(Nc3ccc(OC(F)(F)F)cc3)c2cc1OC` [Example 1, 6,7-dimethoxy-N-(4-(trifluoromethoxy)phenyl)isoquinolin-1-amine], the Lactate secretion entry in experiment [1] is reported as “restored; also recorded: significantly enhances lactate secretion”. The EC50 in the experiment with astrocytes is > 5 µM.

One may read the EC50 as the concentration needed to bring the measured effect to its halfway point. Low readings indicate higher potency in that assay, high ones lower potency in that assay.
